Our source for the TGI and GI50 values is PubChem BioAssay (NCI).

Among the test systems are SF-268 CNS; UACC-257 melanoma; DU-145 prostate; UO-31 renal; 786-0 renal; SF-539 CNS; SR leukemia; K-562 leukemia.
Common to all, as to assay: NCI-60 cell line screen, 48 h

SMILES strings stand for the structures.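 In this assay, cells in 96-well plates receive the compound at five concentrations for 48 hours. Endpoints are linearly interpolated between the surrounding concentrations. GI50: concentration for 50% inhibition of growth. Definition used: TGI = concentration required for complete inhibition of growth.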

Take `c1ccc2c3c([nH]c2c1)C1c2[nH]c4ccccc4c2CCN1CC3`: the TGI in the experiment on SF-268 CNS came out at 30.3 µM; in the experiment on UACC-257 melanoma, 28.6 µM; in the experiment on DU-145 prostate, 26.1 µM; in the experiment with UO-31 renal, 18.5 µM; with 786-0 renal, 25.8 µM; in the experiment on SF-539 CNS it was 31.3 µM. For the same compound, the TGI with SR leukemia was greater than 100 µM.
In the case of `Cc1c(C(=O)O)c2cc3ccccc3cc2c(=O)n1C`, the TGI in the experiment with SF-268 CNS, in the experiment with UACC-257 melanoma, in the experiment with UO-31 renal, with 786-0 renal, in the experiment with SF-539 CNS and with SR leukemia was greater than 10 µM in each case.
`Cc1cc2c(cc1C)[n+](=O)c(N1CCN(c3ccc([N+](=O)[O-])cc3)CC1)c(C#N)n2[O-]`: the TGI was greater than 100 µM with SF-268 CNS; greater than 100 µM with UACC-257 melanoma; greater than 100 µM in the experiment on DU-145 prostate; greater than 100 µM in the experiment on UO-31 renal; 59.8 µM in the experiment on 786-0 renal.
Take `CSc1nc2c(N)ncnc2n1C`: the TGI in the experiment with SF-268 CNS, in the experiment on UACC-257 melanoma, in the experiment on DU-145 prostate, in the experiment with UO-31 renal, in the experiment on 786-0 renal and in the experiment with SF-539 CNS was greater than 100 µM throughout. Moreover, in the experiment with K-562 leukemia, the TGI was greater than 100 µM.
Take `CN(C)c1ccc(/C=C(\NC(=O)c2ccccc2)C(=O)Nc2ccccc2C(=O)O)cc1`: the TGI with SF-268 CNS, in the experiment on UACC-257 melanoma, in the experiment with DU-145 prostate, with UO-31 renal, with 786-0 renal and in the experiment with SF-539 CNS was greater than 100 µM in each case. Further, the TGI with SR leukemia and with K-562 leukemia was greater than 100 µM throughout.
Consider `COc1ccc(N2C(=O)/C(=C\c3cccc(Oc4ccccc4)c3)S(=O)(=O)C2c2ccccc2)cc1` (configuration not stated), for which the TGI with UACC-257 melanoma is greater than 100 µM; in the experiment with DU-145 prostate, greater than 100 µM; with UO-31 renal, greater than 100 µM; with 786-0 renal, 42.5 µM; in the experiment with SR leukemia it was 59.3 µM; with K-562 leukemia, greater than 100 µM.
Take `Nc1nc(NNc2ccc(Cl)c(Cl)c2)cc(=O)[nH]1`: the TGI in the experiment with SF-268 CNS is greater than 100 µM; with UACC-257 melanoma it was greater than 100 µM; in the experiment on DU-145 prostate, greater than 100 µM; with UO-31 renal it was greater than 100 µM; with 786-0 renal, 67.5 µM; in the experiment with SF-539 CNS, greater than 100 µM. In addition, the values for the TGI with SR leukemia and in the experiment with K-562 leukemia were greater than 100 µM and 54.7 µM, respectively.
With `C=C1CC(Cn2cc(C)c(=O)[nH]c2=O)(c2ccc(-c3ccccc3)cc2)OC1=O` (configuration not stated), the TGI in the experiment with SF-268 CNS worked out at 5.62 µM; in the experiment on UACC-257 melanoma, 5.75 µM; in the experiment with DU-145 prostate, 6.42 µM; in the experiment with UO-31 renal, 11.5 µM; in the experiment with 786-0 renal it was 2.22 µM; with SF-539 CNS it was 8.38 µM. Besides, the TGI in the experiment on SR leukemia stood at 12.8 µM; with K-562 leukemia it was 2.3 µM.
For the compound `COC(=O)NN=C(c1ccc(Cl)cc1)c1ccc(Cl)cc1`, the TGI with SF-268 CNS, with UACC-257 melanoma, in the experiment with DU-145 prostate, in the experiment on UO-31 renal, in the experiment on 786-0 renal and with SF-539 CNS was greater than 100 µM each time. Also, the TGI in the experiment on SR leukemia and in the experiment with K-562 leukemia was greater than 100 µM each time.
Consider `N#CC1CCN2N=C(c3ccccc3)SC12c1ccccc1` (configuration not stated), for which the TGI in the experiment on SF-268 CNS, in the experiment with UACC-257 melanoma, in the experiment with UO-31 renal, in the experiment with 786-0 renal, in the experiment with SF-539 CNS and in the experiment with SR leukemia was greater than 100 µM in each case. The compound further registered a TGI in the experiment with K-562 leukemia greater than 100 µM.
Take `Cc1ccc2c(=O)c(-c3nnc(N)s3)c[nH]c2n1`: the TGI in the experiment with SF-268 CNS, in the experiment with UACC-257 melanoma, in the experiment with DU-145 prostate, in the experiment on UO-31 renal, with 786-0 renal and with K-562 leukemia was greater than 100 µM each time.
Turning to `O=C(CCc1ccc(O)c(O)c1)NCCc1cc(OCc2ccccc2)cc(OCc2ccccc2)c1`, the TGI is 42.3 µM in the experiment on SF-268 CNS; greater than 100 µM in the experiment with UACC-257 melanoma; 32.3 µM in the experiment with DU-145 prostate; 12.6 µM with UO-31 renal; 40 µM in the experiment on 786-0 renal; 30.1 µM in the experiment on SF-539 CNS. The TGI in the experiment with SR leukemia was 7.18 µM; with K-562 leukemia it was greater than 100 µM.
Consider `CC(=O)Nc1cc2c(cc1O)CC[C@@H]1[C@@H]2CC[C@]2(C)[C@@H](O)CC[C@@H]12`, for which the TGI in the experiment with SF-268 CNS was 68.8 µM; in the experiment on UACC-257 melanoma it was greater than 100 µM; in the experiment with DU-145 prostate, greater than 100 µM; in the experiment with UO-31 renal, 97.9 µM; with 786-0 renal it was greater than 100 µM; with SF-539 CNS, greater than 100 µM. Further, the TGI in the experiment with SR leukemia and with K-562 leukemia was greater than 100 µM throughout. For the same compound, the GI50 in the experiment on DU-145 prostate was greater than 100 µM.
As for `COc1ccc(C2=NN(c3ccccc3)C(c3cc4cc(Br)ccc4nc3Cl)C2)cc1` (configuration not stated), the TGI in the experiment on SF-268 CNS, in the experiment on DU-145 prostate, with UO-31 renal, with 786-0 renal, in the experiment with SF-539 CNS and in the experiment on SR leukemia was greater than 25 µM in each case. The same compound displayed a TGI with K-562 leukemia greater than 25 µM.
Take `COP1(=O)NCc2ncccc2O1` (configuration not stated): the TGI in the experiment on UACC-257 melanoma, in the experiment on DU-145 prostate, with UO-31 renal, in the experiment with 786-0 renal, in the experiment with SF-539 CNS and in the experiment on SR leukemia was greater than 100 µM in each case. For the same compound, the TGI in the experiment on K-562 leukemia is greater than 100 µM.
As for `[N-]=[N+]=Nc1c([N+](=O)[O-])c(Cl)nc2ccccc12`, the TGI in the experiment on SF-268 CNS was determined as 11.7 µM; in the experiment on UACC-257 melanoma it was 3.45 µM; with DU-145 prostate, 5.35 µM; with UO-31 renal, 1.58 µM; with 786-0 renal, 1.11 µM; with SF-539 CNS it was 9.74 µM. The compound also came in with a TGI in the experiment on K-562 leukemia of 1.74 µM.
In the case of `COc1ccc(C(C2C(=O)N(C)C(=O)N(C)C2=O)C(F)(F)C(=O)N(C)C)cc1` (configuration not stated), the TGI in the experiment with SF-268 CNS, in the experiment with UACC-257 melanoma, with DU-145 prostate, in the experiment on UO-31 renal, in the experiment with 786-0 renal and in the experiment with SF-539 CNS was greater than 100 µM in each case.
For the compound `CCOC(=O)c1cccc([N+](=O)[O-])c1N`, the TGI in the experiment with UACC-257 melanoma, in the experiment on DU-145 prostate, in the experiment on UO-31 renal, with 786-0 renal, with SF-539 CNS and with SR leukemia was greater than 100 µM in each case. Moreover, the TGI with K-562 leukemia was greater than 100 µM.
